Experimental data taken from PMC2229834 (Molecular Microbiology, 2007).

Columns and labels:
E. coli PTPS (EcPTPS) = target: T1, E. coli PTPS (EcPTPS) (Escherichia coli, UniProt P65870); assay: HPLC with fluorescence of iodine-oxidised pterin products; format: biochemical; details: 9 uM DHNTP, 10 mM MgCl2, 2 mM DTT, pH 8.0, 37 C, 1 h
T1 sequence (P65870 1-121): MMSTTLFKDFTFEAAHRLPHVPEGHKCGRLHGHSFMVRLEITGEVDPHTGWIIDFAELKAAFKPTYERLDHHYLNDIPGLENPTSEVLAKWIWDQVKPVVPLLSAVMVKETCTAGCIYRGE

human PTPS (HsPTPS) = target: T2, human PTPS (HsPTPS) (Homo sapiens, UniProt Q03393); assay: as above; format: biochemical; details: 9 uM DHNTP, 10 mM MgCl2, 2 mM DTT, pH 8.0, 37 C, 1 h
T2 sequence (Q03393 1-145): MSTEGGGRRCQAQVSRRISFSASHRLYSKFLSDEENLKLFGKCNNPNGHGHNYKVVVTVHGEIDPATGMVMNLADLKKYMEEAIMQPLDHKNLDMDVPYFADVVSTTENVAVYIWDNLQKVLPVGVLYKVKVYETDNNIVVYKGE

Structure (SMILES): Nc1nc2c(c(=O)[nH]1)N=C([C@H](O)[C@H](O)COP(=O)(O)OP(=O)(O)OP(=O)(O)O)CN2 [DHNTP]
- HPLC with fluorescence of iodine-oxidised pterin products (E. coli PTPS (EcPTPS)): Both the bacterial and human enzymes converted DHNTP to PTP as expected
- HPLC with fluorescence of iodine-oxidised pterin products (human PTPS (HsPTPS)): Both the bacterial and human enzymes converted DHNTP to PTP as expected
